Reference: article PMC12647599 (Nature Communications, 2025)

Experiments:
CrHYC3R (THAS3) = target: T1, CrHYC3R (THAS3) (Catharanthus roseus, UniProt A0A1B1FHP1); assay: LC-MS/MS relative activity, yeast lysate; format: biochemical; conditions: 1 mM NADPH, 20 mM Tris-HCl pH 7.5, 30 °C, 4 h
T1 sequence (A0A1B1FHP1 1-377): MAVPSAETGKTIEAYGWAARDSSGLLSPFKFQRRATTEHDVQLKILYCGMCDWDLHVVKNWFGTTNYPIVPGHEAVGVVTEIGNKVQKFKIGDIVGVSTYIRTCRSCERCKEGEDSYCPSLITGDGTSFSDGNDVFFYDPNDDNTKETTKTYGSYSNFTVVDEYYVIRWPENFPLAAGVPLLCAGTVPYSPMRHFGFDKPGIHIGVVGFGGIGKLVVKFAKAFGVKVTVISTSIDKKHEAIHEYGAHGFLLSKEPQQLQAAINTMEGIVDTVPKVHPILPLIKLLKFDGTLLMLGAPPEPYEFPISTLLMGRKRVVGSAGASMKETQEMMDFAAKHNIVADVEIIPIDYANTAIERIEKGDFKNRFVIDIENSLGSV

RtHYC3O = assay: LC-MS/MS product assay, non-linear regression; format: biochemical, Rauvolfia tetraphylla; conditions: 20 mM Tris-HCl pH 7.5, 30 °C, 10 min; air O2; FAD enzyme

Compound	LC-MS/MS relative activity, yeast lysate (CrHYC3R (THAS3))	Km (RtHYC3O)
COC(=O)[C@@H]1[C@H]2CC3=[N+](CCc4c3[nH]c3ccccc43)C[C@@H]2CC[C@@H]1O [3-dehydro-yohimbine]	efficiently reduced 3-dehydro intermediates of yohimbine and heteroyohimbine types	
COC(=O)[C@H]1[C@H]2C[C@H]3c4[nH]c5ccccc5c4CCN3C[C@H]2CC[C@@H]1O [rauwolscine]		1.15 µM
